Source: article PMC11966747, “Next Generation Risk Assessment of Acute Neurotoxicity from Organophosphate Exposures Using the In Vitro–In Silico Derived Dietary Comparator Ratio” (Environmental Science & Technology, 2025)
Where two headings read alike, the source gives them in different places.

Legend:
[1] = target: T1, erythrocyte AChE (Homo sapiens, UniProt P22303); assay: Exposure Activity Ratio (EAR) and Dietary Comparator Ratio (DCR) calculation; parameters: from tissue; host or cells: human whole peripheral blood (erythrocytes), K2EDTA anticoagulant; conditions: for calculated DCR value / calculated EARtest value: human
Protocol: The DCR value for an exposure scenario was calculated as the ratio of EARtest and EARcomparator (eq 1). The EARtest is scenario-specific and was defined with the IC50 of the tested organophosphate oxon for in vitro erythrocyte AChE inhibition and the PBK model-simulated CBmaxoxon at the defined exposure level (eq 2).
The DCR-based predictions were evaluated by comparing the obtained DCR results with actual knowledge of the adverse health effects reported for the respective exposure scenarios. Adverse effects cannot be ruled out for human exposure scenarios with a DCR result greater than 1, while exposure scenarios with a DCR result less than or equal to 1 are considered to raise no safety concern.[18]−[20] Once validated as an adequate predicting tool, the DCR approach was applied for evaluating the safety of exposure scenarios, for which no information on the resulting toxic outcomes was reported at the defined dose levels for humans.

[2] = QSAR-based prediction; ref Punt et al. 2022; Moerenhout et al. 2024; cited from earlier work
[3] = target: T1, erythrocyte AChE; conditions: cited from earlier work; for reported or expected adverse health outcome: ref Table S2
[4] = target: T1, erythrocyte AChE; assay: biochemical; format: biochemical; parameters: from tissue; host or cells: human whole peripheral blood (erythrocytes), K2EDTA anticoagulant
Protocol: Ethanol (UPLC/MS grade) was ordered from Biosolve (Valkenswaard, The Netherlands). Ultrapure water used for experiments was prepared with a Sartorius Arium Pro ultrapure water system (Göttingen, Germany). Human whole peripheral blood with K2EDTA as an anticoagulant was used for the in vitro AChE inhibition assay. K2EDTA acts as an inhibitor to the paraoxonase 1 (PON1) enzyme,[23] preventing the underestimation of the inhibition potential of organophosphate oxons due to the nontarget clearance by PON1 present in the blood samples.
Inhibition of erythrocyte AChE by the organophosphate oxon or the corresponding oxon metabolite of an organothiophosphate was measured in vitro using the method previously described.[12] The ethanolic stock solution of the test oxon was first diluted 100 times with sodium phosphate buffer (100 mM, pH 7.4), and 10 μL of the diluted solution was added to 90 μL of human whole blood sample in a 48-wells flat-bottom transparent plate (Greiner Bio-One, The Netherlands). After a 30 min incubation at room temperature, the blood samples were then diluted 20 times with ultrapure water containing 0.03% Triton-X 100 (v/v), and 20 μL of the Triton-diluted blood was incubated for 20 min following the addition of 460 μL of DTNB and 20 μL of ethopropazine (an inhibitor to plasma butyrylcholinesterase (BuChE)). After that, 100 μL of ATC was added (final concentrations of ethopropazine, DTNB, and ATC were 20 μM, 1 mM, and 1 mM, respectively), and the absorbance at 436 nm was measured continuously to detect the remaining AChE activity. Controls were carried out by replacing the test compound with sodium phosphate buffer to correct for any background absorbance.
The benchmark response (BMR) of 5% for erythrocyte AChE inhibition is a conservative end point for deriving an effect level, since regulatory bodies usually use a higher BMR (i.e., 10% or 20%) for risk assessment of acute OP pesticide exposure.[24],[25] The European Food Safety Authority (EFSA) Web tool (https://efsa.openanalytics.eu/) integrated with the R package PROAST (version 70.0) was employed for the BMC analysis (see Supporting Information).

[5] = target: T1, erythrocyte AChE; parameters: from tissue; host or cells: human whole peripheral blood (erythrocytes), K2EDTA anticoagulant; method as in PMID 38008925; conditions: human blood; read-out: IC50, erythrocyte AChE inhibition; cited from earlier work
[6] = 1 mg/kg BW single oral, a volunteer, ref APVMA. 2000 (original data of Brown. 1966)
[7] = human whole blood, BMC analysis, PROAST model averaging

T1 sequence (P22303 32-617 isoform P22303-2 limits assumed): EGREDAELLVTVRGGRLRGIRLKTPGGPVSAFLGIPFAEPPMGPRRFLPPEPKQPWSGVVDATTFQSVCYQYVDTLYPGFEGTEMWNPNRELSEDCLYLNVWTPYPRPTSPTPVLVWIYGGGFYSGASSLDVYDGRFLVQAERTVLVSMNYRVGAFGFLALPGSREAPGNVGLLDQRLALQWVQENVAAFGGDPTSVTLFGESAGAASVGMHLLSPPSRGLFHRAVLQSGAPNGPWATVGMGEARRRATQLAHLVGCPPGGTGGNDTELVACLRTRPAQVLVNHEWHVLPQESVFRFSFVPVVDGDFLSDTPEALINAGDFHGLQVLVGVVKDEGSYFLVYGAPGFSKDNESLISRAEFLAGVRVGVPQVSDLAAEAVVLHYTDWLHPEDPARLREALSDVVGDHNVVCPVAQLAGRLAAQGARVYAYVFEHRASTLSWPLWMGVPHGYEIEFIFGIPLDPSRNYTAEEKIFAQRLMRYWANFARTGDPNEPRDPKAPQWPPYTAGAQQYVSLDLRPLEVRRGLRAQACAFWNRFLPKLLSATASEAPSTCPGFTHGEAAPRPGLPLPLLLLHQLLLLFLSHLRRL

CCOP(=O)(OCC)OC(=CCl)c1ccc(Cl)cc1Cl [chlorfenvinphos]
calculated DCR value ([1]; single oral 0.04 mg/kg BW): 3.8 × 10^–3
calculated EARtest value ([1]; single oral 0.04 mg/kg BW): 1.5 × 10^–4
calculated EARtest value ([1]; single oral 0.18 mg/kg BW): 6.8 × 10^–4
calculated DCR value ([1]; single oral 1 mg/kg BW): 0.098
calculated EARtest value ([1]; single oral 1 mg/kg BW): 3.9 × 10^–3
Oral absorption rate constant [2]: 0.81 h⁻¹
Reported concomitant effects (signs and symptoms) ([3]; 0.04 mg/kg BW (3 mg), first dose of repeated exposure study, male volunteers, ref APVMA. 2000 (original data of Hunter et al. 1972)): No toxic signs was observed
Erythrocyte AChE inhibition [3, 6]: 40%
Reported concomitant effects (signs and symptoms) [3, 6]: no toxic signs
Reported erythrocyte AChE activity/inhibition [3, 6]: Decreased erythrocyte AChE
reported or expected adverse health outcome ([3]; human, single oral 0.04 mg/kg BW, 0.04 mg/kg): negative
reported or expected adverse health outcome ([3]; human, single oral 0.04 mg/kg BW, listed as Chlorfenvinphos, 0.04 mg/kg): No
reported or expected adverse health outcome ([3]; human, single oral 1 mg/kg BW, listed as Chlorfenvinphos, 1 mg/kg): No

CCOP(=O)(OCC)Oc1nc(Cl)c(Cl)cc1Cl [chlorpyrifos oxon]
EARcomparator ([1]; BMCL05/IC50 of chlorpyrifos oxon): 0.039
BMCL05 (lower 95% confidence limit of benchmark concentration for 5% erythrocyte AChE inhibition) [4, 7]: 0.015 µM
BMCU05 (upper 95% confidence limit of benchmark concentration for 5% erythrocyte AChE inhibition) [4, 7]: 0.10 µM

CCOP(=S)(OCC)Oc1nc(Cl)c(Cl)cc1Cl [chlorpyrifos]
calculated DCR value ([1]; single oral 0.01 mg/kg BW): 4.6 × 10^–3
calculated EARtest value ([1]; single oral 0.01 mg/kg BW): 1.8 × 10^–4
calculated EARtest value ([1]; single oral 0.012 mg/kg BW): 2.2 × 10^–4
calculated DCR value ([1]; single oral 0.03 mg/kg BW): 0.014
calculated EARtest value ([1]; single oral 0.03 mg/kg BW): 5.4 × 10^–4
calculated DCR value ([1]; single oral 0.1 mg/kg BW): 0.046
calculated EARtest value ([1]; single oral 0.1 mg/kg BW): 1.8 × 10^–3
calculated DCR value ([1]; single oral 0.5 mg/kg BW): 0.23
calculated EARtest value ([1]; single oral 0.5 mg/kg BW): 9.2 × 10^–3
calculated DCR value ([1]; single oral 1 mg/kg BW): 0.48
calculated EARtest value ([1]; single oral 1 mg/kg BW): 0.019
calculated DCR value ([1]; single oral 2 mg/kg BW): 1.0
calculated EARtest value ([1]; single oral 2 mg/kg BW): 0.040
calculated DCR value ([1]; single oral 214 mg/kg BW): 38
calculated EARtest value ([1]; single oral 214 mg/kg BW): 1.50
calculated DCR value ([1]; single oral 300 mg/kg BW): 40
calculated EARtest value ([1]; single oral 300 mg/kg BW): 1.58
Oral absorption rate constant [2]: 1.01 h⁻¹
no-observed-adverse-effect level (NOAEL) for toxic signs and symptoms ([3]; human volunteers, fasted overnight, single oral dose): 2 mg/kg BW
inhibition of erythrocyte AChE ([3]; human, in vivo, po, 2 mg/kg): 28%
Erythrocyte AChE inhibition ([3]; human, in vivo): 28%
reported or expected adverse health outcome ([3]; human, single oral 0.01 mg/kg BW, 0.01 mg/kg): negative
reported or expected adverse health outcome ([3]; human, single oral 0.01 mg/kg BW, listed as Chlorpyrifos, 0.01 mg/kg): No
reported or expected adverse health outcome ([3]; human, single oral 0.012 mg/kg BW, 0.012 mg/kg): negative
reported or expected adverse health outcome ([3]; human, single oral 0.012 mg/kg BW, listed as Chlorpyrifos, 0.012 mg/kg): No
reported or expected adverse health outcome ([3]; human, single oral 0.03 mg/kg BW, 0.03 mg/kg): negative
reported or expected adverse health outcome ([3]; human, single oral 0.03 mg/kg BW, listed as Chlorpyrifos, 0.03 mg/kg): No
reported or expected adverse health outcome ([3]; human, single oral 0.1 mg/kg BW, 0.1 mg/kg): negative
reported or expected adverse health outcome ([3]; human, single oral 0.1 mg/kg BW, listed as Chlorpyrifos, 0.1 mg/kg): No
reported or expected adverse health outcome ([3]; human, single oral 0.5 mg/kg BW, 0.5 mg/kg): negative
reported or expected adverse health outcome ([3]; human, single oral 0.5 mg/kg BW, listed as Chlorpyrifos, 0.5 mg/kg): No
reported or expected adverse health outcome ([3]; human, single oral 1 mg/kg BW, 1 mg/kg): negative
reported or expected adverse health outcome ([3]; human, single oral 1 mg/kg BW, listed as Chlorpyrifos, 1 mg/kg): No
reported or expected adverse health outcome ([3]; human, single oral 2 mg/kg BW, listed as Chlorpyrifos, 2 mg/kg): No
reported or expected adverse health outcome ([3]; human, single oral 214 mg/kg BW, 214 mg/kg): positive
reported or expected adverse health outcome ([3]; human, single oral 214 mg/kg BW, listed as Chlorpyrifos, 214 mg/kg): Yes
reported or expected adverse health outcome ([3]; human, single oral 300 mg/kg BW, 300 mg/kg): positive
reported or expected adverse health outcome ([3]; human, single oral 300 mg/kg BW, listed as Chlorpyrifos, 300 mg/kg): Yes

CCOP(=O)(OCC)Oc1cc(C)nc(C(C)C)n1 [diazoxon]
IC50 [4]: 1.82 µM

COP(=O)(OC)Oc1ccc([N+](=O)[O-])c(C)c1 [fenitrooxon]
IC50 [5]: 0.84 µM

COP(=S)(OC)Oc1ccc([N+](=O)[O-])cc1 [methyl parathion]
calculated DCR value ([1]; single oral 0.003 mg/kg BW): 0.092
calculated EARtest value ([1]; single oral 0.003 mg/kg BW): 3.6 × 10^–3
calculated DCR value ([1]; single oral 0.029 mg/kg BW): 0.89
calculated EARtest value ([1]; single oral 0.029 mg/kg BW): 0.035
calculated DCR value ([1]; single oral 0.057 mg/kg BW): 1.8
calculated EARtest value ([1]; single oral 0.057 mg/kg BW): 0.069
calculated DCR value ([1]; single oral 0.30 mg/kg BW): 9.2
calculated EARtest value ([1]; single oral 0.30 mg/kg BW): 0.36
calculated DCR value ([1]; single oral 26 mg/kg BW): 927
calculated EARtest value ([1]; single oral 26 mg/kg BW): 36.59
Oral absorption rate constant [2]: 0.58 h⁻¹
reported blood concentration ([3]; 286 mg/kg BW (20 g) acute oral, person, ref Luzhnikov et al. 1977): 3 mg/L
reported or expected adverse health outcome ([3]; human, single oral 0.003 mg/kg BW, 0.003 mg/kg): negative
reported or expected adverse health outcome ([3]; human, single oral 0.003 mg/kg BW, listed as Methyl parathion, 0.003 mg/kg): No
reported or expected adverse health outcome ([3]; human, single oral 0.029 mg/kg BW, 0.029 mg/kg): negative
reported or expected adverse health outcome ([3]; human, single oral 0.029 mg/kg BW, listed as Methyl parathion, 0.029 mg/kg): No
reported or expected adverse health outcome ([3]; human, single oral 0.057 mg/kg BW, 0.057 mg/kg): negative
reported or expected adverse health outcome ([3]; human, single oral 0.057 mg/kg BW, listed as Methyl parathion, 0.057 mg/kg): No
reported or expected adverse health outcome ([3]; human, single oral 0.30 mg/kg BW, 0.3 mg/kg): negative
reported or expected adverse health outcome ([3]; human, single oral 0.30 mg/kg BW, listed as Methyl parathion, 0.3 mg/kg): No
reported or expected adverse health outcome ([3]; human, single oral 26 mg/kg BW, 26 mg/kg): positive
reported or expected adverse health outcome ([3]; human, single oral 26 mg/kg BW, listed as Methyl parathion, 26 mg/kg): Yes

CCCSP(=O)(OCC)Oc1ccc(Br)cc1Cl (stereo not shown) [profenofos]
calculated DCR value ([1]; single oral 1600 mg/kg BW): 272
calculated EARtest value ([1]; single oral 1600 mg/kg BW): 10.75
Oral absorption rate constant [2]: 0.90 h⁻¹
IC50 [4]: 94.5 µM
Reported concomitant effects (signs and symptoms) ([3]; 1600 mg/kg BW (112 g) acute oral, person, ref Seno et al. 1998): Died
reported or expected adverse health outcome ([3]; human, single oral 1600 mg/kg BW, 1600 mg/kg): positive
reported or expected adverse health outcome ([3]; human, single oral 1600 mg/kg BW, listed as Profenofos, 1600 mg/kg): Yes
